Test results reported in patent US10870925B2, “Arrays” (SENGENICS CORPORATION PTE LTD, priority 2001, dated 2020).

Legend:
cytochrome P450 3A4 = target: T1, cytochrome P450 3A4 (Homo sapiens, UniProt P08684); assay: BzRes oxidation and ketoconazole inhibition, cytochrome P450 3A4 microsomes in solution and encapsulated in agarose; assay type: biochemical; conditions: standard error in parentheses
T1 construct: host or cells: microsomes

3A4*WT = target: T2, 3A4*WT (Homo sapiens, UniProt P08684); assay: BzRes turnover and ketoconazole inhibition, cumene hydrogen peroxide activated purified P450 3A4 isoform; assay type: biochemical; conditions: standard error in parentheses
T2 construct: His-tag (concluded from Ni-NTA / Talon purification); biotinylated tag (BCCP; concluded from streptavidin detection); made in house; host or cells: E. coli XL-10 gold

3A4*2 = target: T3, 3A4*2 (Homo sapiens, UniProt P08684, S222P); assay: as above; assay type: biochemical; conditions: standard error in parentheses
T3 construct: His-tag (concluded from Ni-NTA / Talon purification); biotinylated tag (BCCP; concluded from streptavidin detection); made in house; host or cells: E. coli XL-10 gold

3A4*3 = target: T4, 3A4*3 (Homo sapiens, UniProt P08684, M445T); assay: as above; assay type: biochemical; conditions: standard error in parentheses
T4 construct: His-tag (concluded from Ni-NTA / Talon purification); biotinylated tag (BCCP; concluded from streptavidin detection); made in house; host or cells: E. coli XL-10 gold

3A4*4 = target: T5, 3A4*4 (Homo sapiens, UniProt P08684, I118V); assay: as above; assay type: biochemical; conditions: standard error in parentheses
T5 construct: His-tag (concluded from Ni-NTA / Talon purification); biotinylated tag (BCCP; concluded from streptavidin detection); made in house; host or cells: E. coli XL-10 gold

3A4*5 = target: T6, 3A4*5 (Homo sapiens, UniProt P08684, P218R); assay: as above; assay type: biochemical; conditions: standard error in parentheses
T6 construct: His-tag (concluded from Ni-NTA / Talon purification); biotinylated tag (BCCP; concluded from streptavidin detection); made in house; host or cells: E. coli XL-10 gold

3A4*15 = 3A4*15 (Homo sapiens, UniProt P08684, R162Q); assay: as above
[1] = system: GADD45 promoter element DNA; assay: Quantitative DNA binding on the p53 protein microarray (33P-labelled duplex DNA); conditions: 33P GADD45 duplex DNA; for DNA binding Bmax (% wild-type) / Kd: room temperature 30 min, confidence limits in parentheses; for GADD45 DNA binding, in words: p53 microarray
[2] = Gel encapsulated (agarose) microsomes
[3] = 200 μM cumene hydrogen peroxide
[4] = normalised for P450 concentration and scaled to wild-type

T1 sequence (P08684 whole entry): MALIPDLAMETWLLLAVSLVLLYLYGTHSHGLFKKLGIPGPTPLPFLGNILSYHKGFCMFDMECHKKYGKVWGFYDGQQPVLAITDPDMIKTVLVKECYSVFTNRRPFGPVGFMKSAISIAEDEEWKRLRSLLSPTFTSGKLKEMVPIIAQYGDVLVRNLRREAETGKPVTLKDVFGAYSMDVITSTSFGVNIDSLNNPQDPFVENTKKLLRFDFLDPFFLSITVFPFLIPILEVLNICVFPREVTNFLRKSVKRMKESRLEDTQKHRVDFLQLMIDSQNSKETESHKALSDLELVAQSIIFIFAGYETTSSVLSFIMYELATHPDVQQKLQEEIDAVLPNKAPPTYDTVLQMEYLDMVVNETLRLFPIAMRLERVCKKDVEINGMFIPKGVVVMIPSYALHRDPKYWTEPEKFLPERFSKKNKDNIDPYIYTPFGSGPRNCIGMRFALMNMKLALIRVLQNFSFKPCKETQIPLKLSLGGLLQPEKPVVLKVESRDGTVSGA
T6 sequence (P08684 whole entry P218R): as the sequence (P08684 whole entry) above, with P218R counted along it
T4 sequence (P08684 whole entry M445T): as the sequence (P08684 whole entry) above, with M445T counted along it
Chain of 3A4*15 (P08684 whole entry R162Q): as the sequence (P08684 whole entry) above, with R162Q counted along it
T3 sequence (P08684 whole entry S222P): as the sequence (P08684 whole entry) above, with S222P counted along it
T5 sequence (P08684 whole entry I118V): as the sequence (P08684 whole entry) above, with I118V counted along it
T2 sequence (P08684 whole entry, canonical isoform): as the sequence (P08684 whole entry) above

## O=c1ccc2nc3ccc(OCc4ccccc4)cc3oc-2c1 [BzRes, resorufin benzyl ether]
Cytochrome P450 3A4; [2]
  BzRes Oxidation Vmax (% of soluble): 50 (6) % of soluble
  Km: 49 µM
Cytochrome P450 3A4; Soluble microsomes
  BzRes Oxidation Vmax (% of soluble): 100 (6) % of soluble
  Km: 20 µM
3A4*WT; [3]
  Km: 104 µM
3A4*WT; [4]
  Vmax BzRes: 100 (34)
3A4*2; [3]
  Km: 62 µM
3A4*2; [4]
  Vmax BzRes: 65 (9)
3A4*3; [3]
  Km: 54 µM
3A4*3; [4]
  Vmax BzRes: 93 (24)
3A4*4; [3]
  Km: 111 µM
3A4*4; [4]
  Vmax BzRes: 69 (22)
3A4*5; [3]
  Km: 101 µM
3A4*5; [4]
  Vmax BzRes: 59 (16)
3A4*15; normalised for P450 concentration and scaled to wild-type, standard error in parentheses
  Vmax BzRes: 111 (23)
3A4*15; read-out: KM BzRes, 200 μM cumene hydrogen peroxide, standard error in parentheses
  Km: 89 µM

## G325V: p53 mutant protein, His- and biotin-tagged, E. coli expressed [Mutation G325V]
[1]
  DNA binding Bmax (% wild-type): 73 (67-79) % wild-type
  Kd: 0.007 µM
  GADD45 DNA binding, in words: near wild-type affinity

## R181C: p53 mutant protein, His- and biotin-tagged, E. coli expressed [Mutation R181C]
[1]
  DNA binding Bmax (% wild-type): 88 (81-95) % wild-type
  Kd: 0.011 µM
  GADD45 DNA binding, in words: wild-type binding

## R181H: p53 mutant protein, His- and biotin-tagged, E. coli expressed [Mutation R181H]
[1]
  DNA binding Bmax (% wild-type): 48 (40-57) % wild-type
  Kd: 0.011 µM
  GADD45 DNA binding, in words: wild-type binding

## R280K: p53 mutant protein, His- and biotin-tagged, E. coli expressed [Mutation R280K]
[1]
  DNA binding Bmax (% wild-type): 54 (40-70) % wild-type
  Kd: 0.021 µM

## S392A: p53 mutant protein, His- and biotin-tagged, E. coli expressed [Mutation S392A]
[1]
  DNA binding Bmax (% wild-type): 121 (107-136) % wild-type
  Kd: 0.01 µM
